In patent US9546354B2, “Z cells activated by zinc finger-like protein and uses thereof in cancer treatment” (National Cheng Kung University, priority 2014, dated 2017):
“Also recorded” adds a separate entry of the source. No end group written: not given here. TMR = tetramethylrhodamine label

Key:
WWOX = assay: Ser14 phosphorylation of WWOX and Wwox protein level in the lung of treated mice; type: in vivo, BALB/c mice
Procedure: (§1) FIG. 1 includes photos showing that Zfra suppresses melanoma B16F10 metastasis to the lung and cancer stemness. BALB/c mice were pre-injected with sterile MilliQ water or Zfra4-10 (1 mM in 100 μl sterile water) in 3 consecutive weeks. Post-treatment for a week, these mice were inoculated with melanoma B16F10 cells via tail veins (2×10^5 cells in 100 μl PBS). Control mice died 50 days later, and Zfra-treated mice were alive and sacrificed for examination. A: Shown on the lung surface are the metastatic tumor foci as dark areas in control mice. […] No metastases were found in other organs in both mice. C: Zfra suppressed Ser14 phosphorylation of […] (or Wwox) in the lung of Zfra treated mice (˜65% suppression).
(§2) Importantly, cancer cell stemness, as determined by the expression of pluripotent stem cell markers Oct-4 and SSEA-4, was blocked in the lungs of Zfra4-10 treated mice (FIG. 1D). Thus, when WWOX phosphorylation at Ser14 is blocked by Zfra, cancer cell metastasis and stemness is prevented.

melanoma B16F10 cells [1] = assay: melanoma B16F10 growth in pre-injected BALB/c mice; type: in vivo; details: pre-injection before inoculation, immune competent BALB/c mice
Procedure: (§3) FIG. 3 is a diagram showing identification of Z spleen cells. (A) Nude mice were pre-injected with sterile MilliQ water or a mixture of Zfra1-31 (2 mM in 100 μl sterile water) in 4 consecutive weeks, followed by inoculating malignant breast MDA-MB-231 cells on both flanks 7 and 50 days later. Tumor sizes on both flanks (blue and red) were measured daily. […] These mice were sacrificed, and TMR-Zfra-positive spleen cells were isolated by cell sorting. TMR-Zfra-positive Z spleen cells were around 25% in Zfra-treated mice. […] In B16F10 melanoma-growing BALB/c mice, spleen Z cells dropped down to 3.3% or even lower. In untreated control mice, Z cells are around 25-29%.
FIG. 4A is a diagram showing in vivo animal models design to test the anticancer efficacy of chemical drugs and “Z cells” activation. Immune competent BALB/c mice or immune deficient NOD-SCID mice were pre-injected with CI-4AS-1 or (±)-Blebbistatin with or without zinc finger-like Zfra4-10 peptide once per week for 3 consecutive weeks, and then inoculated with 2.5×10^6 or 1.5×10^6 malignant melanoma B16F10 cells at both right and left flanks. After 60 days, spleen cells transferred were performed from BALB/c to NOD-SCID mice via tail veins injection. Thirty days later, the recipient mice were inoculated with 1.5×10^6 malignant melanoma B16F10 cells at both right and left flanks. […]

Z cells = assay: Z cell activation by Zfra peptide; type: cell-based, BALB/c mice; details: in vivo and in vitro
Procedure: Briefly, spleen cells were isolated from BALB/c mice and then cultured overnight. These cells were stimulated with Zfra4-10 peptide (10 μM) for 16-24 hr, and then stained with TMR-Zfra, followed by isolating the cells using a cell sorter. Z+ and Z− cell populations were counted and injected via tail veins of BALB/c. […] FIG. 5.

melanoma B16F10 cells [2] = assay: melanoma B16F10 lung metastasis after tail-vein inoculation in pre-injected BALB/c mice; type: in vivo
Procedure: as §1
BALB/c mice were pre-injected with sterile MilliQ water or Zfra4-10 (1 mM in 100 μl sterile water) once per week in three consecutive weeks. Following one week post-treatment, the mice were inoculated with melanoma B16F10 cells via tail veins (2×10^5 cells in 100 μl PBS).
as §2

[3] = target: T1, membrane hyaluronidase Hyal-2 (Mus musculus, UniProt O35632); assay: staining of spleen cells with TMR-Zfra and Hyal-2 antibody, epifluorescence and confocal microscopy; type: binding, NOD-SCID mice; details: 30 minutes on ice
T1 construct: spleen cells were isolated from immune deficient NOD-SCID mice; from tissue; host or cells: spleen cells of NOD-SCID mice
T1 sequence (O35632 21-448): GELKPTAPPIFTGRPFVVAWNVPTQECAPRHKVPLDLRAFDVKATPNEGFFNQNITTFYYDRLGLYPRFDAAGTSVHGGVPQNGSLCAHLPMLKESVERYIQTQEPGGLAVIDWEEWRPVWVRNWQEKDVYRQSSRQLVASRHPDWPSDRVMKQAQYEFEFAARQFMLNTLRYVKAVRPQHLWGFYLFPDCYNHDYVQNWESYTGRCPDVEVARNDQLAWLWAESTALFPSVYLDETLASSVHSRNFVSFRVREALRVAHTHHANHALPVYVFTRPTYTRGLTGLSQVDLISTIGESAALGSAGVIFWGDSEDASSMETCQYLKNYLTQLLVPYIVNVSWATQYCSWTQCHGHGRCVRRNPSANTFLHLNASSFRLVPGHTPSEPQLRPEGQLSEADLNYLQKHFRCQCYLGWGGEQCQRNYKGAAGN
Procedure: FIG. 2 includes photos showing the identification of Zfra^+ Hyal-2^+ spleen cells. A and B: Spleen cells of NOD-SCID mice were isolated and stained with synthesized peptide TMR-Zfra1-31 and Hyal-2 (green fluorescence) antibody for 30 minutes on ice, and then fixed with 4% formaldehyde.
In this example, spleen cells were isolated from immune deficient NOD-SCID mice, which are deficient in T and B lymphocytes and NK cells. The isolated spleen cells were stained with antibody against Hyal-2 (green) and TMR-Zfra (Zfra1-31 labeled with red fluorescent tetramethylrodamine) for 30 minutes on ice, and then fixed with 4% formaldehyde (FIG. 2). […] These Hyal-2^+ Zfra^+ positive cells are interchangeably referred to as “Z cells,” for cells interacting with Zfra.

Z cell function = assay: screen of more than 300 compounds for boosting Z cell function; details: alone or in combination with a Zfra peptide
Description: In this example, more than 300 hundred compounds were screened for their activities in boosting Z cell function either alone or in combination with a Zfra peptide. From this collection of compounds, CI-4AS-1 (androgen receptor agonist) and (±)-Blebbistatin (inhibitor for non-muscle myosin II ATPase) were identified.

spleen Z cells = assay: level of TMR-Zfra-positive spleen Z cells by cell sorting; type: in vivo; details: Zfra-treated BALB/c mice inoculated with B16F10 melanoma
Procedure: as §3
Next, the levels of spleen Z cells in mice pre-treated with full-length Zfra1-31 or control and inoculated with B16F10 melanoma cells were examined. B16F10-growing BALB/c mice had low levels of Z cells, which were 3.3% or lower (FIG. 3C). In contrast, Zfra-treated mice had 26.1% Z cells (FIG. 3C). […] These cells are Hyal-2 positive. The observations indicate that Z cells (e.g., Hyal-2 positive spleen cells) are depleted in mice having cancer growths, and that treatment with Zfra increases the number of Z cells in mice having cancer growths.
Spleen cells from the mice were isolated and stained with synthesized peptide TMR-Zfra1-31 (Tetramethylrhodamine-Zfra, excitation 550 nm, emission 573 nm) for 30 minutes on ice.

breast MDA-MB-231 cells = assay: breast MDA-MB-231 xenograft growth in pre-injected nude mice; type: in vivo; details: pre-injected once per week for 4 weeks
Procedure: as §3

DsRed-Hyal-2 = assay: Förster resonance energy transfer (FRET) analysis; type: binding; details: versus EGFP and DsRed controls, n=10, p<0.005

RRSSSCK [Zfra4-10]
Wwox protein levels (WWOX; lung of Zfra treated mice): not suppressed
suppression of Ser14 phosphorylation of WWgre (or Wwox) in the lung (WWOX; lung of Zfra treated mice, FIG. 1C): ~65%
Ser14 phosphorylation of WWOX (in words) (WWOX; lung of treated mice, FIG. 1C): inhibition of Ser14 phosphorylation of WWOX
growth of melanoma B16F10 in BALB/c mice (melanoma B16F10 cells [1]): prevented melanoma B16F10 growth
Z cell activation (Z cells): sufficient to induce Z cell activation both in vivo and in vitro
cancer cell stemness (pluripotent markers Oct-4 and SSEA-4) in the lung (melanoma B16F10 cells [2]; B16F10 cells in the lung, FIG. 1D): suppressed the stemness; also recorded: blocked
melanoma B16F10 metastasis to the lung (melanoma B16F10 cells [2]; Zfra4-10 1 mM in 100 μl once per week for 3 weeks before 2×10^5 B16F10 cells via tail veins): Metastasis was not found; also recorded: suppressed melanoma B16F10 metastasis to the lung
survival of mice (melanoma B16F10 cells [2]; when control mice died 50 days after inoculation of B16F10 cells): remained alive

TMR-Zfra1-31: Zfra1-31 labeled with red fluorescent tetramethylrodamine ({TMR}-MSSRRSSSCKYCEQDFRAHTQKNAATPFLAN; cysteine pairing not given here)
binding to or colocalization with membrane Hyal-2 on spleen cells [3]: bound to membrane hyaluronidase Hyal-2
binding to or colocalization with membrane Hyal-2 on spleen cells ([3]; listed as TMR-Zfra): colocalization of both proteins on the cell surface

Cc1ccc2c(c1)C(=O)C1(O)CCN(c3ccccc3)C1=N2 (racemic) [(±)-Blebbistatin]
outcome of screen for boosting Z cell function (Z cell function): identified

NH-MSSRRSSSCKYCEQDFRAHTQKNAATPFLAN-COOH (H-MSSRRSSSCKYCEQDFRAHTQKNAATPFLAN-OH; cysteine pairing not given here) [Zfra1-31]
TMR-Zfra-positive Z spleen cells (spleen Z cells): 26.1%
growth of breast MDA-MB-231 xenografts (breast MDA-MB-231 cells): resisted the growth

EGFP-Zfra: EGFP-tagged Zfra used in FRET analysis with DsRed-Hyal-2 (MSSRRSSSCKYCEQDFRAHTQKNAATPFLAN; cysteine pairing not given here; also: EGFP tag fused, end not given here) [reference compound]
binding to Hyal-2 by FRET (DsRed-Hyal-2): significant binding

CI-4AS-1
outcome of screen for boosting Z cell function (Z cell function): identified

Zfra: Zfra peptide, form not stated at the place (Zfra1-31 or Zfra4-10) (MSSRRSSSCKYCEQDFRAHTQKNAATPFLAN)
TMR-Zfra-positive Z spleen cells (spleen Z cells): around 25%
growth of melanoma B16F10 in BALB/c mice (melanoma B16F10 cells [1]): completely blocked
binding to Hyal-2 by FRET (DsRed-Hyal-2): binding of Zfra to membrane Hyal-2
